Experimental data as given in ChEMBL document CHEMBL1201862, “PubChem BioAssay data set” (2004).
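These data come from cells grown in 96-well plates and exposed to compound for 48 hours at five concentrations. Here, GI50 denotes the concentration required for 50% inhibition of growth.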 Activity calls are given as the source filed them. No stated cut-off is given here; in the data, active = GI50 up to about 1.1 µM and inactive = higher.

Experiments:
Test in all cases: DTP human tumour cell line panel, 48 h
EKVX = system: EKVX
HOP-92 = system: HOP-92
OVCAR-4 = system: OVCAR-4
K562 = system: K562
Hs-578T = system: Hs-578T
OVCAR-5 = system: OVCAR-5
CCRF-CEM = system: CCRF-CEM
M14 = system: M14
NCI-H226 = system: NCI-H226
LOX IMVI = system: LOX IMVI
ACHN = system: ACHN
NCI/ADR-RES = system: NCI/ADR-RES
HL-60 = system: HL-60
786-0 = system: 786-0
MOLT-4 = system: MOLT-4
SNB-19 = system: SNB-19
NCI-H522 = system: NCI-H522
T47D = system: T47D
UACC-62 = system: UACC-62
NCI-H23 = system: NCI-H23
TK-10 = system: TK-10
MCF7 = system: MCF7
RXF 393 = system: RXF 393
A549 = system: A549
COLO 205 = system: COLO 205
MDA-N = system: MDA-N
SF-268 = system: SF-268
IGROV-1 = system: IGROV-1
SW-620 = system: SW-620
Malme-3M = system: Malme-3M
NCI-H460 = system: NCI-H460
HCC 2998 = system: HCC 2998
SR = system: SR
UACC-257 = system: UACC-257
UO-31 = system: UO-31
KM12 = system: KM12
SF-539 = system: SF-539
SK-MEL-28 = system: SK-MEL-28
SK-MEL-2 = system: SK-MEL-2
SNB-75 = system: SNB-75
HT-29 = system: HT-29
A498 = system: A498
SN12C = system: SN12C
CAKI-1 = system: CAKI-1
MDA-MB-231 = system: MDA-MB-231
SK-OV-3 = system: SK-OV-3
HCT-116 = system: HCT-116
OVCAR-8 = system: OVCAR-8
U-251 = system: U-251
BT-549 = system: BT-549
HOP-62 = system: HOP-62
DU-145 = system: DU-145
HCT-15 = system: HCT-15
SF-295 = system: SF-295
OVCAR-3 = system: OVCAR-3
SK-MEL-5 = system: SK-MEL-5
MDA-MB-435 = system: MDA-MB-435
PC-3 = system: PC-3
RPMI-8226 = system: RPMI-8226
DMS-273 = system: DMS-273
SNB-78 = system: SNB-78
M19-MEL = system: M19-MEL

Measured: GI50

COc1cc(Nc2n[nH]c(NS(=O)(=O)c3cc(C)c(Cl)cc3S)n2)cc(OC)c1OC
> 100 µM: HCT-15
inactive: EKVX > 100 µM | HOP-92 > 100 µM | OVCAR-4 > 100 µM | K562 > 100 µM | Hs-578T > 100 µM | OVCAR-5 > 100 µM | CCRF-CEM > 100 µM | M14 > 100 µM | NCI-H226 > 100 µM | LOX IMVI > 100 µM | ACHN > 100 µM | NCI/ADR-RES > 100 µM | HL-60 > 100 µM | 786-0 > 100 µM | MOLT-4 > 100 µM | SNB-19 > 100 µM | NCI-H522 > 100 µM | T47D > 100 µM | UACC-62 > 100 µM | NCI-H23 > 100 µM | TK-10 > 100 µM | MCF7 > 100 µM | RXF 393 > 100 µM | A549 > 100 µM | COLO 205 > 100 µM | MDA-N > 100 µM | SF-268 > 100 µM | IGROV-1 > 100 µM | SW-620 > 100 µM | Malme-3M > 100 µM | NCI-H460 > 100 µM | HCC 2998 > 100 µM | SR > 100 µM | UACC-257 > 100 µM | UO-31 > 100 µM | KM12 > 100 µM | SF-539 > 100 µM | SK-MEL-28 > 100 µM | SK-MEL-2 > 100 µM | SNB-75 > 100 µM | HT-29 > 100 µM | A498 > 100 µM | SN12C > 100 µM | CAKI-1 > 100 µM | MDA-MB-231 > 100 µM | SK-OV-3 > 100 µM | HCT-116 > 100 µM | OVCAR-8 > 100 µM | U-251 > 100 µM | BT-549 > 100 µM | HOP-62 > 100 µM | DU-145 > 100 µM | SF-295 > 100 µM | OVCAR-3 > 100 µM | SK-MEL-5 > 100 µM | MDA-MB-435 > 100 µM | PC-3 > 100 µM | RPMI-8226 > 100 µM

CC1(C(=O)Nc2ccc3ccccc3c2)CC2(C)CC(C)(C1)C(O)NC2=O (stereo not given)
inactive: EKVX > 100 µM | HOP-92 > 100 µM | OVCAR-5 > 100 µM | CCRF-CEM > 100 µM | M14 > 100 µM | ACHN > 100 µM | DMS-273 > 100 µM | HL-60 > 100 µM | MOLT-4 > 100 µM | SNB-19 > 100 µM | NCI-H522 > 100 µM | UACC-62 > 100 µM | NCI-H23 > 100 µM | TK-10 > 100 µM | RXF 393 > 100 µM | A549 > 100 µM | SNB-78 > 100 µM | SF-268 > 100 µM | IGROV-1 > 100 µM | NCI-H460 > 100 µM | SR > 100 µM | UACC-257 81.5 µM | UO-31 > 100 µM | KM12 > 100 µM | SK-MEL-28 > 100 µM | HT-29 > 100 µM | A498 > 100 µM | SK-OV-3 > 100 µM | OVCAR-8 86.9 µM | M19-MEL > 100 µM | U-251 > 100 µM | HOP-62 > 100 µM | SF-295 > 100 µM

COc1ccc2ccccc2c1/C=C/C(=O)c1ccccc1
active: SR 1.06 µM | SNB-75 1.08 µM
2.9 µM: HCT-15
inactive: EKVX 3.61 µM | HOP-92 1.69 µM | OVCAR-4 2.74 µM | K562 1.93 µM | Hs-578T 2.92 µM | OVCAR-5 7.57 µM | CCRF-CEM 1.65 µM | M14 3.13 µM | NCI-H226 3.1 µM | LOX IMVI 2.77 µM | ACHN 3.33 µM | NCI/ADR-RES 3.01 µM | HL-60 1.7 µM | 786-0 2.87 µM | MOLT-4 2.84 µM | SNB-19 3.24 µM | NCI-H522 2.46 µM | T47D 2.43 µM | UACC-62 2.89 µM | NCI-H23 2.6 µM | TK-10 2.59 µM | MCF7 3.25 µM | RXF 393 1.33 µM | A549 2.65 µM | COLO 205 3.25 µM | MDA-N 2.94 µM | SF-268 2.7 µM | IGROV-1 4.03 µM | SW-620 2.54 µM | Malme-3M 9.33 µM | NCI-H460 1.79 µM | HCC 2998 1.66 µM | UACC-257 4.05 µM | UO-31 2.82 µM | KM12 2.51 µM | SF-539 2.74 µM | SK-MEL-28 5.96 µM | SK-MEL-2 1.56 µM | HT-29 3.43 µM | A498 3.56 µM | SN12C 2.88 µM | CAKI-1 4.8 µM | MDA-MB-231 2.66 µM | SK-OV-3 3.62 µM | HCT-116 2.99 µM | OVCAR-8 2.33 µM | U-251 1.95 µM | BT-549 2.96 µM | HOP-62 2.68 µM | DU-145 2.4 µM | SF-295 3.75 µM | OVCAR-3 2.32 µM | SK-MEL-5 4.19 µM | MDA-MB-435 2.53 µM | PC-3 4 µM | RPMI-8226 1.44 µM

Cc1ccc2c(O)cc(-c3ccc(Cl)cc3)nc2n1
inactive: EKVX 18 µM | HOP-92 13.6 µM | OVCAR-4 15.2 µM | K562 2.58 µM | Hs-578T 11.9 µM | OVCAR-5 > 39.3 µM | CCRF-CEM 7.52 µM | M14 7.48 µM | NCI-H226 14.9 µM | LOX IMVI 4.93 µM | ACHN 8.07 µM | NCI/ADR-RES 8.89 µM | HL-60 2.69 µM | 786-0 5.38 µM | MOLT-4 1.2 µM | SNB-19 6.97 µM | NCI-H522 5.89 µM | UACC-62 5.15 µM | NCI-H23 27.2 µM | TK-10 21.2 µM | MCF7 3.35 µM | RXF 393 27.2 µM | A549 2.73 µM | COLO 205 1.85 µM | MDA-N 1.56 µM | SF-268 27 µM | IGROV-1 5.69 µM | SW-620 5.08 µM | Malme-3M 3.74 µM | NCI-H460 3.69 µM | HCC 2998 6.65 µM | SR 4.33 µM | UACC-257 15.6 µM | UO-31 14.3 µM | KM12 4.57 µM | SF-539 5.16 µM | SK-MEL-28 9.66 µM | SK-MEL-2 3.98 µM | SNB-75 8.24 µM | HT-29 3.3 µM | A498 9.73 µM | SN12C 4.38 µM | CAKI-1 5.57 µM | MDA-MB-231 5.52 µM | SK-OV-3 6.64 µM | HCT-116 3.1 µM | OVCAR-8 9.33 µM | U-251 5.47 µM | BT-549 2.38 µM | HOP-62 9.16 µM | DU-145 6.05 µM | SF-295 4.59 µM | OVCAR-3 3.1 µM | SK-MEL-5 3.47 µM | MDA-MB-435 1.32 µM | PC-3 2.96 µM | RPMI-8226 1.87 µM
3.31 µM: HCT-15
active: T47D 0.764 µM
